For series [1] the following is noted: value reported by the manufacturer of the commercial product, a rough average, or inventors' judgment; cited from earlier work.
The nature of series [2]: Surfactant combinations giving clear aqueous dispersions (maximum hydrophobic surfactant, visual optical clarity). The conditions noted are these: for approximate maximum grams of hydrophobic surfactant per 100 g of hydrophilic surfactant giving acceptable optical clarity: 10× aqueous dispersion, no solubilizer.
[3] abbreviates: hydrophilic surfactant Cremophor RH40 + 20% Ethanol.
[4] abbreviates: hydrophilic surfactant Cremophor RH40 + 20% Glycofurol.
The mark [5] stands for this setting: hydrophilic surfactant Cremophor RH40 + 20% Triacetin.
Setting [6] is: hydrophilic surfactant Cremophor RH40, solubilizer (None), reproduced from Table 19.
Where [7] appears, read: hydrophilic surfactant PEG-8 Capric/Caprylic (Labrasol).
Setting [8] is: hydrophilic surfactant PEG-25 Glyceryl trioleate (Tagat TO).
Where [9] appears, read: hydrophilic surfactant PEG-35 Castor Oil (Incrocas 35).
Where [10] appears, read: hydrophilic surfactant PEG-40H Castor Oil (Cremophor RH-40).
[11] abbreviates: hydrophilic surfactant PEG-60 Corn Oil (Crovol M-70).
Setting [12] is: hydrophilic surfactant Polysorbate 80 (Tween 80).
Setting [13] is: hydrophilic surfactant Polysorbate-20 (Tween 20).

The values below come from patent publication US6451339B2, “Compositions and methods for improved delivery of hydrophobic agents” (Lipocine, Inc., priority 1999, dated 2002).

For the compound PEG 400-100O monostearate, the HLB in series [1] was >10.
Regarding `CCCCC/C=C\C/C=C\CCCCCCCC(=O)OC(C)C` [Isopropyl linoleate], the HLB in series [1] is <10.
As to `CC(C)CCC[C@@H](C)[C@H]1CC[C@H]2[C@@H]3CC=C4C[C@@H](O)CC[C@]4(C)[C@H]3CC[C@]12C` [Cholesterol], the HLB in series [1] is <10.
Regarding `CCCCCCCCCCCCCCCCCC(=O)OCC(CO)(CO)COC(=O)CCCCCCCCCCCCCCCCC` [Pentaerythrityl distearate], in series [1], the HLB is >10.
In the case of `CCCCCCCCCCCCOS(=O)(=O)[O-].[Na+]` [Sodium lauryl sulfate, Sodium lauryl sulfate (dodecyl)], in series [1], the HLB is on record as 40.
Turning to “mono- and diacetylated monoglycerides [Mono- and monoglycerides]”, in series [1], the HLB is 3.8-4. The “approximate maximum grams of hydrophobic surfactant per 100 g of hydrophilic surfactant giving a clear aqueous dispersion” value in series [2] (setting [3]), in series [2] (setting [4]), in series [2] (hydrophilic surfactant Cremophor RH40 + 20% PEG-400), in series [2] (setting [5]) and in series [2] (setting [6]) was 80 g per 100 g of hydrophilic sur each time. Also, the “approximate maximum grams of hydrophobic surfactant per 100 g of hydrophilic surfactant giving acceptable optical clarity” value in series [2] (setting [7]) is recorded as 10 g per 100 g of hydrophilic sur; in series [2] (setting [8]) it was 10 g per 100 g of hydrophilic sur; in series [2] (setting [9]), 80 g per 100 g of hydrophilic sur; in series [2] (setting [10]), 80 g per 100 g of hydrophilic sur; in series [2] (setting [11]) it was 10 g per 100 g of hydrophilic sur; in series [2] (setting [12]) it was 15 g per 100 g of hydrophilic sur. Further, the “approximate maximum grams of hydrophobic surfactant per 100 g of hydrophilic surfactant giving acceptable optical clarity” value in series [2] (setting [13]) was 20 g per 100 g of hydrophilic sur.
On to PEG-5 soya sterol, for which the HLB in series [1] is <10.
As to `CCCCCCCC(=O)OCC(C)OC(=O)CCCCCCC` (centres unmarked) [Propylene glycol dioctanoate], the HLB in series [1] was <6.
With `CCCCCCCCCCCCCC(=O)OC(C)C` [Isopropyl myristate], the HLB in series [1] is <10.
As for `CCCCCCCC/C=C\CCCCCCCC(=O)[O-].[Na+]` [Sodium oleate], in series [1], the HLB is 18.
In the case of PEG-20 soya sterol, in series [1], the HLB was <10.
Take PEG-24 cholesterol ether: in series [1], the HLB is recorded as >10.
In the case of `CCCCCCCC(=O)OCC(C)OC(=O)CCCCCCC` (centres unmarked) [Propylene glycol dicaprylate], the HLB in series [1] is recorded as >6.
As to PEG-25 phyto sterol, in series [1], the HLB is recorded as >10.
Regarding `CCCCCCCCCC(=O)OCC(C)OC(=O)CCCCCCCCC` (centres unmarked) [Propylene glycol dicaprate], the HLB in series [1] is recorded as >6.
In the case of `CCCCCCCCCCCC(=O)OCC(C)OC(=O)CCCCCCCCCCC` (centres unmarked) [Propylene glycol dilaurate], the HLB in series [1] was >6.
With PEG-30 cholestanol, in series [1], the HLB was >10.
Turning to `CC(C)=CCC[C@@H](C)[C@H]1CC[C@@]2(C)C3=C(CC[C@]12C)[C@@]1(C)CC[C@H](O)C(C)(C)[C@@H]1CC3` [Ianosterol], the HLB in series [1] was <10.
For `CCCCCCCC/C=C\CCCCCCCC(=O)OCC` [Ethyl oleate], the HLB in series [1] is on record as <10. Besides, in series [2] (Cremophor RH 40 hydrophilic surfactant, 20% solubilizer), the “effect of added solubilizer on the relative amount of hydrophobic surfactant that can be used” value is “negligible”. In addition, the “approximate maximum grams of hydrophobic surfactant per 100 g of hydrophilic surfactant giving a clear aqueous dispersion” value in series [2] (setting [3]), in series [2] (setting [4]), in series [2] (setting [5]) and in series [2] (setting [6]) was 60 g per 100 g of hydrophilic sur in each case. For the same compound, the “approximate maximum grams of hydrophobic surfactant per 100 g of hydrophilic surfactant giving acceptable optical clarity” value in series [2] (setting [7]) is on record as 10 g per 100 g of hydrophilic sur; in series [2] (setting [8]), 10 g per 100 g of hydrophilic sur; in series [2] (setting [9]) it was 40 g per 100 g of hydrophilic sur; in series [2] (setting [10]), 60 g per 100 g of hydrophilic sur; in series [2] (setting [11]), 60 g per 100 g of hydrophilic sur; in series [2] (setting [12]) it was 10 g per 100 g of hydrophilic sur. Further, the “approximate maximum grams of hydrophobic surfactant per 100 g of hydrophilic surfactant giving acceptable optical clarity” value in series [2] (setting [13]) was 10 g per 100 g of hydrophilic sur.
In the case of `CC[C@H](CC[C@@H](C)[C@H]1CC[C@H]2[C@@H]3CC=C4C[C@@H](O)CC[C@]4(C)[C@H]3CC[C@]12C)C(C)C` [sitosterol], in series [1], the HLB was <10.
For PEG-10 soya sterol, the HLB in series [1] is given as <10.
With PEG-30 soya sterol, the HLB in series [1] is recorded as >10.
Regarding `CCCCCCCC/C=C\CCCCCCCC(=O)OCC(COC(=O)CCCCCCC/C=C\CCCCCCCC)(COC(=O)CCCCCCC/C=C\CCCCCCCC)COC(=O)CCCCCCC/C=C\CCCCCCCC` [Pentaerythrityl tetraoleate], in series [1], the HLB is reported as >10.
Turning to `CCCCCCCCCCCCCCCCCC(=O)OCC(C)OC(=O)CCCCCCCCCCCCCCCCC` (centres unmarked) [Propylene glycol distearate], in series [1], the HLB is >6.
Consider `CCCCC/C=C\C/C=C\CCCCCCCC(=O)OCC` [Ethyl linoleate], for which the HLB in series [1] is recorded as <10.
For the compound Propylene glycol dicaprylate/dicaprate, the HLB in series [1] is reported as <6.
